Results published in publication PMC12298351, “Novel 3,19-(N-Phenyl-3-(4-fluorophenyl)-pyrazole) Acetal of Andrographolide Promotes Cell Cycle Arrest and Apoptosis in MDA-MB-231 Breast Cancer Cells” (Pharmaceuticals, 2025).

What was measured:
M14 = type: cell-based; details: M14, Melanoma
MDA-MB-468 = details: MDA-MB-468, Breast; for CC50: read-out: 50% lethal concentration (LC50)
NCI/ADR-RES = details: for GI50 / Total growth inhibition (TGI): Ovarian; for CC50: read-out: 50% lethal concentration (LC50), Ovarian
SF-539 = details: SF-539, CNS; for CC50: read-out: 50% lethal concentration (LC50)
A549/ATCC = details: for Total growth inhibition (TGI): Non-Small Cell Lung; for GI50: Non-Small-Cell Lung; for CC50: read-out: 50% lethal concentration (LC50), Non-Small Cell Lung
OVCAR-8 = details: OVCAR-8, Ovarian; for CC50: read-out: 50% lethal concentration (LC50)
UACC-257 = details: UACC-257, Melanoma
COLO 205 = details: COLO 205, Colon
U251 = details: U251, CNS
UACC-62 = details: UACC-62, Melanoma; for CC50: read-out: 50% lethal concentration (LC50)
HCT-116 = type: cell-based; details: HCT-116, Colon
OVCAR-5 = details: OVCAR-5, Ovarian; for CC50: read-out: 50% lethal concentration (LC50)
SK-OV-3 = details: SK-OV-3, Ovarian; for CC50: read-out: 50% lethal concentration (LC50)
OVCAR-4 = type: cell-based; details: OVCAR-4, Ovarian; for CC50: read-out: 50% lethal concentration (LC50)
RPMI-8226 = details: RPMI-8226, Leukemia; for CC50: read-out: 50% lethal concentration (LC50)
HT29 = details: HT29, Colon; for CC50: read-out: 50% lethal concentration (LC50)
DU-145 = details: DU-145, Prostate
HCT-15 = details: HCT-15, Colon; for CC50: read-out: 50% lethal concentration (LC50)
K-562 = details: K-562, Leukemia; for CC50: read-out: 50% lethal concentration (LC50)
NCI-H522 = details: for Total growth inhibition (TGI) / CC50: NCI-H522, Non-Small Cell Lung; for GI50: NCI-H522, Non-Small-Cell Lung; for CC50: read-out: 50% lethal concentration (LC50)
SK-MEL-28 = details: SK-MEL-28, Melanoma; for CC50: read-out: 50% lethal concentration (LC50)
NCI-H23 = details: for Total growth inhibition (TGI) / CC50: NCI-H23, Non-Small Cell Lung; for GI50: NCI-H23, Non-Small-Cell Lung; for CC50: read-out: 50% lethal concentration (LC50)
MALME-3M = details: Melanoma
MOLT-4 = details: MOLT-4, Leukemia; for CC50: read-out: 50% lethal concentration (LC50)
LOX IMVI = details: for GI50 / Total growth inhibition (TGI): Melanoma; for CC50: read-out: 50% lethal concentration (LC50), Melanoma
PC-3 = details: PC-3, Prostate; for CC50: read-out: 50% lethal concentration (LC50)
OVCAR-3 = details: OVCAR-3, Ovarian; for CC50: read-out: 50% lethal concentration (LC50)
[1] = DPPH radical scavenging assay; details: 25 µM test compound, 0.1 mM DPPH, acetonitrile, 30 min
Protocol: A stable free radical DPPH (2,2-Diphenyl-1-picrylhydrazyl) assay was employed to test the antioxidant activity of all the synthesized compounds. Concisely, 25 µM of the test compounds were dissolved in acetonitrile and combined with 0.1 mM of DPPH (in acetonitrile) in a 1:2 ratio (80 µL and 160 µL). Then, the mixture was left undisturbed in the dark for 30 min at room temperature. After 30 min, the absorbance of the solutions was instantly measured at 517 nm using a Varioskan Multiplate Reader (Thermo Fisher Scientific, Mumbai, India). Ascorbic acid (in acetonitrile) was used as the positive control, and andrographolide and isoandrogapholide (in acetonitrile) were used as the standards. The following equation was used to determine the DPPH radical scavenging activity:% Radical scavenging activity = (Ac − As)/Ac × 100 where Ac = the absorbance of the blank (DPPH solution), and As = the absorbance of the test samples

[2] = read-out: 50% lethal concentration (LC50)

## C=C1CCC2C3(C)COC(c4cn(-c5ccccc5)nc4-c4ccc(Cl)cc4)OC3CCC2(C)C1CC=C1C(=O)OCC1O (stereo not drawn) [1g]
M14
  GI50: 1.84 µM
  Total growth inhibition (TGI): 3.69 µM
MDA-MB-468
  GI50: 2 µM
  Total growth inhibition (TGI): 4.49 µM
  CC50: 6.36 µM
NCI/ADR-RES
  GI50: 1.83 µM
  Total growth inhibition (TGI): 4.24 µM
  CC50: 9.87 µM
SF-539
  GI50: 1.72 µM
  Total growth inhibition (TGI): 3.12 µM
  CC50: 5.66 µM
A549/ATCC
  Total growth inhibition (TGI): 36.3 µM
  GI50: 3.57 µM
  CC50: > 100 µM
OVCAR-8
  GI50: 1.95 µM
  Total growth inhibition (TGI): 4.97 µM
  CC50: > 100 µM
UACC-257
  GI50: 1.8 µM
  Total growth inhibition (TGI): 3.63 µM
COLO 205
  GI50: 2.3 µM
  Total growth inhibition (TGI): 5.58 µM
U251
  GI50: 2.39 µM
  Total growth inhibition (TGI): 3.19 µM
UACC-62
  GI50: 1.68 µM
  Total growth inhibition (TGI): 3.27 µM
  CC50: 6.39 µM
HCT-116
  GI50: 1.2 µM
  Total growth inhibition (TGI): 2.53 µM
HCT-116; [2]
  CC50: 5.37 µM
OVCAR-5
  GI50: 1.98 µM
  Total growth inhibition (TGI): 5.38 µM
  CC50: > 100 µM
SK-OV-3
  GI50: 3.04 µM
  Total growth inhibition (TGI): 1.67 µM
  CC50: > 100 µM
OVCAR-4
  GI50: 2.03 µM
  Total growth inhibition (TGI): 5.15 µM
  CC50: > 100 µM
RPMI-8226
  GI50: 2.46 µM
  Total growth inhibition (TGI): > 100 µM
  CC50: > 100 µM
HT29
  GI50: 1.69 µM
  Total growth inhibition (TGI): 4.64 µM
  CC50: > 100 µM
DU-145
  GI50: 2.05 µM
  Total growth inhibition (TGI): 4.1 µM
HCT-15
  GI50: 1.59 µM
  Total growth inhibition (TGI): 3.21 µM
  CC50: 6.51 µM
K-562
  GI50: 3.67 µM
  Total growth inhibition (TGI): > 100 µM
  CC50: > 100 µM
NCI-H522
  Total growth inhibition (TGI): 3.12 µM
  GI50: 1.58 µM
  CC50: 6.17 µM
SK-MEL-28
  GI50: 1.78 µM
  Total growth inhibition (TGI): 3.36 µM
  CC50: 6.35 µM
NCI-H23
  Total growth inhibition (TGI): 3.59 µM
  GI50: 1.73 µM
  CC50: 7.45 µM
MALME-3M
  GI50: 1.82 µM
  Total growth inhibition (TGI): 3.41 µM
MOLT-4
  GI50: 0.88 µM
  Total growth inhibition (TGI): > 100 µM
  CC50: > 100 µM
LOX IMVI
  GI50: 1.58 µM
  Total growth inhibition (TGI): 2.94 µM
  CC50: 5.48 µM
PC-3
  GI50: 2.07 µM
  Total growth inhibition (TGI): > 100 µM
  CC50: > 100 µM
OVCAR-3
  GI50: 1.78 µM
  Total growth inhibition (TGI): 3.72 µM
  CC50: 7.77 µM
[1]
  % DPPH radical scavenging activity: 57.45%

## C=C1CCC2C3(C)COC(c4cn(-c5ccccc5)nc4-c4cccc(Br)c4)OC3CCC2(C)C1CC=C1C(=O)OCC1O (stereo not drawn) [1e]
M14
  GI50: 1.86 µM
  Total growth inhibition (TGI): 4.12 µM
MDA-MB-468
  GI50: 1.82 µM
  Total growth inhibition (TGI): 3.41 µM
  CC50: 6.37 µM
NCI/ADR-RES
  GI50: 2.15 µM
  Total growth inhibition (TGI): 5.37 µM
  CC50: > 100 µM
SF-539
  GI50: 1.78 µM
  Total growth inhibition (TGI): 3.2 µM
  CC50: 5.74 µM
A549/ATCC
  Total growth inhibition (TGI): 19.9 µM
  GI50: 3.07 µM
  CC50: > 100 µM
OVCAR-8
  GI50: 1.76 µM
  Total growth inhibition (TGI): 4.22 µM
  CC50: > 100 µM
UACC-257
  GI50: 1.77 µM
  Total growth inhibition (TGI): 3.45 µM
COLO 205
  GI50: 2.09 µM
  Total growth inhibition (TGI): 4.36 µM
U251
  GI50: 1.69 µM
  Total growth inhibition (TGI): 3.13 µM
UACC-62
  GI50: 1.68 µM
  Total growth inhibition (TGI): 3.4 µM
  CC50: 6.9 µM
HCT-116
  GI50: 1.24 µM
  Total growth inhibition (TGI): 2.75 µM
OVCAR-5
  GI50: 1.85 µM
  Total growth inhibition (TGI): 4.35 µM
  CC50: 47.7 µM
SK-OV-3
  GI50: 4.16 µM
  Total growth inhibition (TGI): 48.3 µM
  CC50: > 100 µM
OVCAR-4
  GI50: 2.49 µM
  CC50: > 100 µM
RPMI-8226
  GI50: 2.75 µM
  Total growth inhibition (TGI): > 100 µM
  CC50: > 100 µM
HT29
  GI50: 1.66 µM
  Total growth inhibition (TGI): 3.46 µM
  CC50: 7.23 µM
DU-145
  GI50: 2.12 µM
  Total growth inhibition (TGI): 4.57 µM
DU-145; [2]
  CC50: 9.82 µM
HCT-15
  GI50: 1.6 µM
  Total growth inhibition (TGI): 3.55 µM
  CC50: 7.85 µM
K-562
  GI50: 2.89 µM
  Total growth inhibition (TGI): > 100 µM
  CC50: > 100 µM
NCI-H522
  Total growth inhibition (TGI): 2.9 µM
  GI50: 1.5 µM
  CC50: 5.62 µM
SK-MEL-28
  GI50: 1.73 µM
  Total growth inhibition (TGI): 3.28 µM
  CC50: 6.2 µM
NCI-H23
  Total growth inhibition (TGI): 4.07 µM
  GI50: 1.9 µM
  CC50: 8.74 µM
MALME-3M
  GI50: 1.87 µM
  Total growth inhibition (TGI): 3.45 µM
MOLT-4
  GI50: 0.91 µM
  Total growth inhibition (TGI): 4.24 µM
  CC50: > 100 µM
LOX IMVI
  GI50: 1.64 µM
  Total growth inhibition (TGI): 3.03 µM
  CC50: 5.59 µM
PC-3
  GI50: 2.29 µM
  CC50: > 100 µM
OVCAR-3
  GI50: 1.69 µM
  Total growth inhibition (TGI): 3.21 µM
  CC50: 6.08 µM
[1]
  % DPPH radical scavenging activity: 58.75%
